From patent US20240368219A1, “ACTIVATION OF E6AP/UBE3A-MEDIATED PROTEIN UBIQ[…] D[…] BY A CYCLIC GAMMA-AA PEPTIDE” (University of South Florida, priority 2022, published 2024)
Where “and” joins values, the source holds several entries; their conditions need not be identical. Identical values can stand only once.

Columns and labels:
HECT domain of E6AP = molecular target: T1, HECT domain of E6AP (Homo sapiens, UniProt Q05086); assay: Fluorescence polarization binding affinity of FITC-labeled peptides with the E6AP HECT domain; settings: Kd of the peptide-HECT complex
T1 construct: serial dilution of E6AP HECT domain; inferred from pET28a vector and Ni-NTA purification; made in house; host or cells: E. coli BL21 (DE3) pLysS, plasmid pET28a-E6AP HECT
T1 sequence (Q05086 518-875 limits assumed): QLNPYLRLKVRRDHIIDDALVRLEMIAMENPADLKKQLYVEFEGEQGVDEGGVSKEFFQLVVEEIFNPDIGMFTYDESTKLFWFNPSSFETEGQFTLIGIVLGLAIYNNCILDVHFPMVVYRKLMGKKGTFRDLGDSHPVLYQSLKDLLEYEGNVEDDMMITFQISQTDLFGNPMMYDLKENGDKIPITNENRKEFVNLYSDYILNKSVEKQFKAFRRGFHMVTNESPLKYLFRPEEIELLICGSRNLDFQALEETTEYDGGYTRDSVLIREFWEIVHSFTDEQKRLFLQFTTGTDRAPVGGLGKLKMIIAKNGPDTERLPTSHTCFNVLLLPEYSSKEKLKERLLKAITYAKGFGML
Procedure: The library was screened based on the binding between the bead-anchored peptides with the HECT domain of E6AP with an N-terminal Flag tag that was recognized by an anti-Flag antibody labeled with AlexaFluor 488 that would emit green fluorescence. […] The peptide ligands from the screen were named P1-8 and they were resynthesized to measure their individual binding affinities with the HECT domain by fluorescence polarization (FP).
The binding affinity (Kd) of the peptides were measured by fluorescence polarization. Briefly, a constant amount of the 100 nM FITC-labeled cyclic peptide was incubated with a serial dilution of E6AP HECT domain. The Kd values was calculated using the following equation, in which the Lst and x refer to the concentration of peptide and protein, respectively.

[1] = Serum stability assay (25% serum, HPLC); assay type: in vitro ADME, human; settings: 25% serum (v/v), 37° C., 24 h
Procedure: (§1) A distinctive characteristic of γ-AA peptides compared with canonical peptides is their remarkable resistance to protease. To assay the stability of P6 in presence of protease, P6 was incubated with 0.1 mg/mL pronase at 37° C. for 24 h.
The serum stabilities of peptides were determined in 25% (v/v) aqueous pooled serum from human male AB plasma (Sigma-Aldrich, Milan, Italy). 1 mg P6 was dissolved in 50 μL CH3CN/H2O (70:30, v/v) and then diluted in serum and incubated at 37° C. for 24 h. Then, 100 μL of solution was added to 100 μL of CH3CN on ice for 15 min and was centrifuged at 4° C. for 10 min. The supernatant was then analyzed by a Waters analytical HPLC system with a 1 mL/min flow rate and 5-100% linear gradient of solvent B (0.1% TFA in acetonitrile) in A (0.1% TFA in water) over the duration of 50 min. The UV detector was set to 215 nm.

pronase = assay: Enzymatic stability study with pronase (HPLC, MS); assay type: in vitro ADME; settings: 0.1 mg/mL pronase, 37° C., 24 h
Procedure: as §1
0.01 mg/mL P6 was incubated with 0.1 mg/mL pronase in 100 mM ammonium bicarbonate buffer (pH 7.8) at 37° C. for 24 h. The reaction mixture was concentrated in a speed vacuum to remove the water and ammonium bicarbonate. The remains were dissolved in 100 μL H2O/CH3CN and analyzed by a Waters analytical HPLC system with a 1 mL/min flow rate and 5-100% linear gradient of solvent B (0.1% TFA in acetonitrile) in A (0.1% TFA in water) over the duration of 50 min. The UV detector was set to 215 nm.

SMILES	Kd (HECT domain of E6AP)	stability in human serum [1]	stability in presence of protease (pronase)
CC(C)C[C@H]1CN(CC(N)=O)C(=O)CCSCc2ccc(cc2)C(=O)N[C@@H](C)CN(C(=O)Cc2ccc3ccccc3c2)CC(=O)N[C@@H](CC(C)C)CN(C(=O)CCc2ccccc2)CC(=O)N[C@@H](Cc2ccccc2)CN(C(=O)Cc2ccc3c(c2)OCO3)CC(=O)N1 [P3]	80 to 218 nM		
C[C@H]1CN(C(=O)Cc2ccc3c(c2)OCO3)CC(=O)N[C@@H](Cc2ccccc2)CN(C(=O)Cc2ccc3ccccc3c2)CC(=O)N[C@@H](CCC(=O)O)CN(C(=O)CC2CC2)CC(=O)N[C@@H](Cc2ccccc2)CN(CC(N)=O)C(=O)CCSCc2ccc(cc2)C(=O)N1 [P8]	80 to 218 nM		
CC(C)C[C@H]1CN(CC(N)=O)C(=O)CCSCc2ccc(cc2)C(=O)N[C@@H](Cc2ccccc2)CN(C(=O)Cc2ccc3ccccc3c2)CC(=O)N[C@@H](CC(C)C)CN(C(=O)CCC2CCCCC2)CC(=O)N[C@@H](Cc2ccccc2)CN(C(=O)Cc2ccc3c(c2)OCO3)CC(=O)N1 [P4]	80 to 218 nM		
COc1cc(CC(=O)N2CC(=O)N[C@@H](Cc3ccccc3)CN(C(=O)CC3CC3)CC(=O)N[C@@H](CC(C)C)CN(CC(N)=O)C(=O)CCSCc3ccc(cc3)C(=O)N[C@@H](CCC(=O)O)CN(C(=O)Cc3ccc4c(c3)OCO4)CC(=O)N[C@@H](CC(C)C)C2)cc(OC)c1 [P5]	80 to 218 nM		
COc1cc(CC(=O)N2CC(=O)N[C@@H](C)CN(C(=O)Cc3cc(OC)cc(OC)c3)CC(=O)N[C@@H](CC(C)C)CN(CC(N)=O)C(=O)CCSCc3ccc(cc3)C(=O)N[C@@H](Cc3ccccc3)CN(C(=O)Cc3ccc4c(c3)OCO4)CC(=O)N[C@@H](Cc3ccccc3)C2)cc(OC)c1 [P7]	80 to 218 nM		
COc1cc(CC(=O)N2CC(=O)N[C@@H](Cc3ccccc3)CN(C(=O)CC3CC3)CC(=O)N[C@@H](CC(C)C)CN(CC(N)=O)C(=O)CCSCc3ccc(cc3)C(=O)N[C@@H](CCCCN)CN(C(=O)Cc3ccc4ccccc4c3)CC(=O)N[C@@H](CC(C)C)C2)cc(OC)c1 [P6]	80 to 218 nM and 218 nM	stability was confirmed	resistant to protease cleavage
